Measurements from ChEMBL document CHEMBL1152076, “Alteration of Na+ permeability in human erythrocytes as studied by 23Na-NMR and inhibition of the kidney Na+,K+-ATPase activities with saponins: Interaction of Gleditsia saponins with human erythrocyte membranes” (Bioorg Med Chem Lett, 1995).
pIC50: −log10 of the molar value.

Molecular target: Sodium/potassium-transporting ATPase (Rattus norvegicus)
Test: Inhibitory activity against rat kidney Na+/K+ ATPase was determined by fiske subbarow method

With `C=C[C@@](C)(O)CC/C=C(\C)C(=O)OC1C(COCCCC2OC(CCCOOC(=O)C34CCC(C)(C)CC3C3=CCC5[C@@]6(C)CCC(OC7OC(CCOCCC8OCC(O)C(O)C8OC8OCC(O)C(O)C8O)C(O)C(O)C7O)C(C)(C)C6CC[C@@]5(C)[C@]3(C)C[C@H]4O)C(OCC3OC(C)C(OCCCCCCCCC4OCC(O)C(OC5OCC(O)C(O)C5O)C4O)C(O)C3O)C(O)C2O)OC(C)C(O)C1OC(=O)/C(=C/CC[C@](C)(O)C=C)CO` (stereo partly specified) the pIC50 was 3.40.
